Source: PMC11822212, “High-throughput screening identifies Aurora kinase B as a critical therapeutic target for Merkel cell carcinoma” (Nature Communications, 2025)

Columns and labels:
MCC13 cells (VN-MCC) = experiment: qHTS cell viability (CellTiter-Glo, 72 h; primary and follow-up small molecule screen); format: cell-based, human
MCC26 cells (VN-MCC) = experiment: as above; format: cell-based, human
UISO cells (VN-MCC) = experiment: as above; format: cell-based, human
WAGA cells (VP-MCC) = experiment: as above; format: cell-based, human
MKL-1 cells (VP-MCC) = experiment: as above; format: cell-based, human
MKL-2 cells (VP-MCC) = experiment: as above; format: cell-based, human
HACAT cells = experiment: qHTS cell viability (CellTiter-Glo, 72 h; primary screen), control cell line; format: cell-based, human
HEK293T cells = experiment: as above; format: cell-based, human
NIH-3T3 cells = experiment: as above; format: cell-based, mouse
CRL-7250 cells = experiment: as above; format: cell-based
[1] = test system: MCC cell lines (WAGA, MKL-1, MKL-2, MCC13, MCC26, UISO); experiment: qHTS cell viability, all six MCC cell lines as a group (mean AUC, MCC.avg); format: cell-based, human
[2] = test system: VP-MCC cell lines (WAGA, MKL-1, MKL-2); experiment: qHTS cell viability, VP-MCC cell lines as a group (mean AUC, VP.MCC.avg); format: cell-based, human; details: for VP-MCC_Avg_AUC: mean AUC of VP-MCC cell lines
[3] = test system: VN-MCC cell lines (MCC13, MCC26, UISO); experiment: qHTS cell viability, VN-MCC cell lines as a group (mean AUC, VN.MCC.avg); format: cell-based, human; details: for VN-MCC_Avg_AUC: mean AUC of VN-MCC cell lines
[4] = test system: control cell lines (HACAT, HEK293T, CRL-7250, NIH-3T3); experiment: qHTS cell viability, control cell lines as a group (mean AUC, Control.avg); format: cell-based; details: mean AUC of control cell lines
[5] = test system: six MCC cell lines and four control cell lines; experiment: qHTS cell viability, all 10 cell lines screened; format: cell-based
[6] = NPC library, qHTS dose-response AUC, MCC13
[7] = NPC library; qHTS dose-response AUC, MCC26
[8] = NPC library, qHTS dose-response AUC, UISO
[9] = NPC library, qHTS dose-response AUC, WAGA
[10] = NPC library, qHTS dose-response AUC, MKL1
[11] = NPC library, qHTS dose-response AUC, MKL2
[12] = NPC library, qHTS dose-response AUC, HACAT control
[13] = NPC library; qHTS dose-response AUC, HEK293T control
[14] = NPC library, qHTS dose-response AUC, NIH3T3 control
[15] = NPC library, qHTS dose-response AUC, CRL7250 control
[16] = NPC library, mean AUC of six MCC cell lines
[17] = NPC library, therapeutic window: Control avg AUC minus VP-MCC avg AUC
[18] = NPC library, therapeutic window: Control avg AUC minus VN-MCC avg AUC
[19] = NPC library, therapeutic window: Control avg AUC minus MCC avg AUC
[20] = MIPE library, 11-point DRC, sheet S2E
[21] = MIPE library, 11-point DRC, control cell line, sheet S2E

O=C(CCCN1CCC(O)(c2ccc(Br)cc2)CC1)c1ccc(F)cc1 [Bromperidol]
MCC13_AUC (MCC13 cells (VN-MCC); [6]): 492.435 | MCC13_AUC (MCC13 cells (VN-MCC); area under the dose-response curve, MCC13 cells, AUC<450 = reduced viability): 492.435 | Area under the dose-response curve (AUC) MCC13 Replicate 1 (MCC13 cells (VN-MCC); follow-up screen, MCC13, replicate 1): 481.5 | Area under the dose-response curve (AUC) MCC13 Replicate 2 (MCC13 cells (VN-MCC); follow-up screen, MCC13, replicate 2): 447.1 | Area under the dose-response curve (AUC) MCC13 Replicate 3 (MCC13 cells (VN-MCC); follow-up screen, MCC13, replicate 3): 475.2 | MCC26_AUC (MCC26 cells (VN-MCC); [7]): 508.837 | MCC26_AUC (MCC26 cells (VN-MCC); area under the dose-response curve, MCC26 cells; AUC<450 = reduced viability): 508.837 | Area under the dose-response curve (AUC) MCC26 Replicate 1 (MCC26 cells (VN-MCC); follow-up screen; MCC26; replicate 1): 451.5 | Area under the dose-response curve (AUC) MCC26 Replicate 2 (MCC26 cells (VN-MCC); follow-up screen; MCC26; replicate 2): 430.2 | Area under the dose-response curve (AUC) MCC26 Replicate 3 (MCC26 cells (VN-MCC); follow-up screen; MCC26; replicate 3): 459.8 | UISO_AUC (UISO cells (VN-MCC); [8]): 465.264 | UISO_AUC (UISO cells (VN-MCC); area under the dose-response curve, UISO cells, AUC<450 = reduced viability): 465.264 | Area under the dose-response curve (AUC) UISO Replicate 1 (UISO cells (VN-MCC); follow-up screen, UISO, replicate 1): 462.9 | Area under the dose-response curve (AUC) UISO Replicate 2 (UISO cells (VN-MCC); follow-up screen, UISO, replicate 2): 471.4 | Area under the dose-response curve (AUC) UISO Replicate 3 (UISO cells (VN-MCC); follow-up screen, UISO, replicate 3): 450.6 | WAGA_AUC (WAGA cells (VP-MCC); [9]): 81.0002 | WAGA_AUC (WAGA cells (VP-MCC); area under the dose-response curve, WAGA cells, AUC<450 = reduced viability): 81.0002 | Area under the dose-response curve (AUC) WAGA Replicate 1 (WAGA cells (VP-MCC); follow-up screen, WAGA, replicate 1): 490.2 | Area under the dose-response curve (AUC) WAGA Replicate 2 (WAGA cells (VP-MCC); follow-up screen, WAGA, replicate 2): 473.6 | Area under the dose-response curve (AUC) WAGA Replicate 3 (WAGA cells (VP-MCC); follow-up screen, WAGA, replicate 3): 491.6 | MKL1_AUC (MKL-1 cells (VP-MCC); [10]): 166.857 | MKL1_AUC (MKL-1 cells (VP-MCC); area under the dose-response curve, MKL-1 cells, AUC<450 = reduced viability): 166.857 | Area under the dose-response curve (AUC) MKL-1 Replicate 1 (MKL-1 cells (VP-MCC); follow-up screen, MKL-1, replicate 1): 478.5 | Area under the dose-response curve (AUC) MKL-1 Replicate 2 (MKL-1 cells (VP-MCC); follow-up screen, MKL-1, replicate 2): 458.4 | Area under the dose-response curve (AUC) MKL-1 Replicate 3 (MKL-1 cells (VP-MCC); follow-up screen, MKL-1, replicate 3): 486.1 | MKL2_AUC (MKL-2 cells (VP-MCC); [11]): 116.273 | MKL2_AUC (MKL-2 cells (VP-MCC); area under the dose-response curve, MKL-2 cells, AUC<450 = reduced viability): 116.273 | Area under the dose-response curve (AUC) MKL-2 Replicate 1 (MKL-2 cells (VP-MCC); follow-up screen, MKL-2, replicate 1): 432.2 | Area under the dose-response curve (AUC) MKL-2 Replicate 2 (MKL-2 cells (VP-MCC); follow-up screen, MKL-2, replicate 2): 463.9 | Area under the dose-response curve (AUC) MKL-2 Replicate 3 (MKL-2 cells (VP-MCC); follow-up screen, MKL-2, replicate 3): 462.5 | HACAT_AUC (HACAT cells; [12]): 453.423 | HACAT_AUC (HACAT cells; area under the dose-response curve, HACAT control cells, AUC<450 = reduced viability): 453.423 | HEK293T_AUC (HEK293T cells; [13]): 458.67 | HEK293T_AUC (HEK293T cells; area under the dose-response curve, HEK293T control cells; AUC<450 = reduced viability): 458.67 | NIH3T3_AUC (NIH-3T3 cells; [14]): 484.97 | NIH3T3_AUC (NIH-3T3 cells; area under the dose-response curve, NIH3T3 control cells, AUC<450 = reduced viability): 484.97 | CRL7250_AUC (CRL-7250 cells; [15]): 469.585 | CRL7250_AUC (CRL-7250 cells; area under the dose-response curve, CRL7250 control cells, AUC<450 = reduced viability): 469.584 | MCC_Avg_AUC [1, 16]: 305.111 | VP-MCC_Avg_AUC ([2]; NPC library): 121.377 | Control-VP-MCC [2, 17]: 345.285 | VN-MCC_Avg_AUC ([3]; NPC library): 488.845 | Control-VN-MCC [3, 18]: -22.1834 | Control_Avg_AUC ([4]; NPC library): 466.662 | Control-MCC [5, 19]: 161.551

O=C(N/N=C/c1ccccc1O)c1ccncc1 [Salinazid]
MCC13_AUC (MCC13 cells (VN-MCC); [6]): 439.405 | MCC26_AUC (MCC26 cells (VN-MCC); NPC library, qHTS dose-response AUC, MCC26): 445.789 | UISO_AUC (UISO cells (VN-MCC); [8]): 339.128 | WAGA_AUC (WAGA cells (VP-MCC); [9]): 408.656 | MKL1_AUC (MKL-1 cells (VP-MCC); [10]): 355.467 | MKL2_AUC (MKL-2 cells (VP-MCC); [11]): 340.216 | HACAT_AUC (HACAT cells; [12]): 455.974 | HEK293T_AUC (HEK293T cells; NPC library, qHTS dose-response AUC, HEK293T control): 458.621 | NIH3T3_AUC (NIH-3T3 cells; [14]): 449.726 | CRL7250_AUC (CRL-7250 cells; [15]): 476.052 | MCC_Avg_AUC ([1]; NPC library, mean AUC of all 6 MCC cell lines): 388.11 | MCC_Avg_AUC [1, 16]: 388.11 | Control-VP-MCC ([2]; Control AUC minus VP-MCC AUC): 91.9801 | VP-MCC_Avg_AUC ([2]; NPC library): 368.113 | Control-VP-MCC [2, 17]: 91.9801 | Control-VN-MCC ([3]; Control AUC minus VN-MCC AUC): 51.9858 | VN-MCC_Avg_AUC ([3]; NPC library): 408.107 | Control-VN-MCC [3, 18]: 51.9858 | Control_Avg_AUC ([4]; NPC library): 460.093 | Control-MCC [5, 19]: 71.983

CCCCC1C(=O)N(c2ccccc2)N(c2ccc(O)cc2)C1=O (stereo not drawn) [Oxyphenbutazone]
MCC13_AUC (MCC13 cells (VN-MCC); [6]): 405.464 | MCC26_AUC (MCC26 cells (VN-MCC); [7]): 450.163 | UISO_AUC (UISO cells (VN-MCC); [8]): 403.541 | WAGA_AUC (WAGA cells (VP-MCC); [9]): 370.924 | MKL1_AUC (MKL-1 cells (VP-MCC); [10]): 340.624 | MKL2_AUC (MKL-2 cells (VP-MCC); [11]): 317.862 | HACAT_AUC (HACAT cells; [12]): 428.222 | HEK293T_AUC (HEK293T cells; [13]): 361.816 | NIH3T3_AUC (NIH-3T3 cells; [14]): 433.353 | CRL7250_AUC (CRL-7250 cells; [15]): 449.026 | MCC_Avg_AUC [1, 16]: 381.43 | VP-MCC_Avg_AUC ([2]; NPC library): 343.137 | Control-VP-MCC [2, 17]: 74.9673 | VN-MCC_Avg_AUC ([3]; NPC library): 419.723 | Control-VN-MCC [3, 18]: -1.619 | Control_Avg_AUC ([4]; NPC library): 418.104 | Control-MCC [5, 19]: 36.6743

CN(C)CC[C@H](CSc1ccccc1)Nc1ccc(S(=O)(=O)NC(=O)c2ccc(N3CCN(Cc4ccccc4-c4ccc(Cl)cc4)CC3)cc2)cc1[N+](=O)[O-] [ABT-737]
MCC13_AUC (MCC13 cells (VN-MCC); [20]): 474.092 | MCC26_AUC (MCC26 cells (VN-MCC); [20]): 472.052 | UISO_AUC (UISO cells (VN-MCC); [20]): 486.905 | WAGA_AUC (WAGA cells (VP-MCC); [20]): 285.196 | MKL1_AUC (MKL-1 cells (VP-MCC); [20]): 334.511 | MKL2_AUC (MKL-2 cells (VP-MCC); [20]): 288.506 | HACAT_AUC (HACAT cells; [21]): 430.037 | HEK293T_AUC (HEK293T cells; [21]): 444.395 | NIH3T3_AUC (NIH-3T3 cells; [21]): 431.249 | CRL7250_AUC (CRL-7250 cells; [21]): 467.3 | MCC_Avg_AUC ([1]; MIPE library, mean AUC of six MCC cell lines, sheet S2E): 390.211 | Control-VP-MCC ([2]; MIPE library, Control AUC minus VP-MCC AUC (therapeutic window), sheet S2E): 140.507 | VP-MCC_Avg_AUC ([2]; MIPE library, sheet S2E): 302.738 | Control-VN-MCC ([3]; MIPE library, Control AUC minus VN-MCC AUC (therapeutic window), sheet S2E): -34.4381 | VN-MCC_Avg_AUC ([3]; MIPE library, sheet S2E): 477.683 | Control_Avg_AUC ([4]; MIPE library, sheet S2E): 443.245 | Control-MCC ([5]; MIPE library, Control AUC minus MCC AUC (therapeutic window), sheet S2E): 53.0346
